Assay results reported in US20190201419A1, “COMPOUND AND METHOD FOR THE TREATMENT AND DIAGNOSIS OF NEURODEGENERATIVE CONDITIONS” (Swansea University, priority 2013, published 2019).

Columns and labels:
active caspase 3+ cells = assay: Active caspase 3+ cells in mouse E11.5 brain primary cultures; type: cell-based; details: for Concentration giving significant difference from vehicle in active caspase 3+ cells: p<0.05; for Number of active caspase-3+ cells: wt cultures, 3β,7α-diHCA, 3βH,7O-CA, 25-HC at 10 μM, toxic acids at low concentrations
Method: (§1) Primary Brain Cultures. Brains from E11.5 mice were manually dissected, plated on poly-D-lysine (150,000 cells/cm^2) and grown in serum-free N2 media consisting of 1:1 mixture of F12 and DMEM with 10 ng/mL insulin, 100 μg/mL apo-transferrin, 100 μM putrescine, 20 nM progesterone, 30 nM selenium, 6 mg/mL glucose, and 1 mg/mL BSA. Cells were treated for 3 days in vitro (DIV) with the compounds of interest, fixed with 4% PFA and processed for staining using appropriate antibodies.
(§2) Antibodies and Detection Procedures. Cells were fixed in 4% PFA, washed in PBS and blocked in 5% normal goat serum/PBS for 1 h at room temperature. Primary antibodies were diluted in PBS (pH 7.4), 0.3% Triton X-100, 1% BSA and incubations were carried out overnight at +4° C. or at room temperature for 2 h. The antibodies used were anti-:BrdU (1:400; Abeam), Islet-1 (1:100: Developmental Studies Hybridoma Bank), cleaved caspase-3 (Aspt 75) (1:100; Cell Signaling Technology), tyrosine hydroxylase (TH; 1:1000; Pel-Freeze) GABA (1:1,000; Sigma), Bm3a (1:250; Millipore), Nkx6.1 (1:200; Novus Biologicals), choline acetyltransferase (ChAT; 1:500; Millipore) and appropriate secondary antibodies (Jackson ImmunoResearch or Alexa). Cells positive for the corresponding marker were counted directly at the microscope at a magnification of 20×. Cells were counted in every well, in eight consecutive fields (going from one side of the well to the other, passing through the center), in three different wells per experiment and in three different experiments per condition. Random pictures of the wells were taken for every condition to document the result, and representative pictures were subsequently selected to represent the quantitative data. Photos were acquired with a Zeiss Axioplan microscope and a Hamamatsu camera C4742-95 using the Openlab software.

[1] = tested on: TH+ dopamine neurons, GABAergic or red nucleus neurons; Nkx6.1+ cells; assay: Other cell types in mouse E11.5 brain primary cultures; type: cell-based
Method: as §1, §2

[2] = tested on: Abca1, Abcg1 and Srebf1 transcript levels; assay: Quantitative PCR of Lxr target genes in SN4741 cells; type: cell-based, mouse; details: 3 h
Method: Quantitative PCR, Total RNA was extracted from SN4741. cells and zebrafish treated with the compounds of interest using the RNeasy Mini Kit (Qiagen), 1 μg was treated with RQ1 RNase-free DNase (Promega) and reverse transcribed using SuperScript II Reverse Transcriptase (invitrogen) and random primers (invitrogen) (RT+reaction). Parallel reactions without reverse transcriptase enzyme were done as a control (RT−reaction), and Sybergreen real-time quantitative PCR assays were performed. Expression levels were obtained by normalization with the Value of the housekeeping gene encoding actin obtained for every sample in parallel assays.

[3] = tested on: Islet1+ oculomotor neurons; assay: Islet1+ cells in mouse E11.5 brain primary cultures; type: cell-based; details: for Number of Islet1+ cells / Concentration giving significant difference from vehicle in Islet1+ cells: wild type cultures; for Concentration giving significant difference from vehicle in Islet1+ cells: p<0.05
Method: as §1, §2

Lxrβ-LBD = target: T1, Lxrβ-LBD (Homo sapiens, UniProt P55055); assay: Lanthascreen TR-FRET Lxrβ coactivator assay; type: binding
T1 construct: the Lxrβ-LBD tagged with glutathione-S-transferase (GST); purchased Invitrogen
T1 sequence (P55055 222-460 limits assumed): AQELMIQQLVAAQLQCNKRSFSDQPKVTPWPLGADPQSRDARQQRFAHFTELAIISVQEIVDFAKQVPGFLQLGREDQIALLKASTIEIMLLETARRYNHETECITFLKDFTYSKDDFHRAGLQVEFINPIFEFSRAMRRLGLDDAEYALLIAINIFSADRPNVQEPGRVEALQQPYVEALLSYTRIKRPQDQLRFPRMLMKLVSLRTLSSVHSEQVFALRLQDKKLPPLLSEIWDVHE
Description: Lxrβ Ligand Binding Assay. For Lxrβ ligand binding activity measurement, the applicants used the Lanthascreen™ TR-FRET Lxrβ Coactivator Assay (Invitrogen). The assay uses a terbium (Tb)-labeled anti-GST antibody, a fluorescein-labeled coactivator peptide and the Lxrβ-LBD tagged with glutathione-S-transferase (GST). Binding of the agonist/ligand to Lxrβ-LBD causes a conformational change that result in an increase in the affinity of the Lxrβ for the coactivator peptide. The close proximity of the fluorescently labeled coactivator peptide to the Tb-labeled antibody causes an increase in the TR-FRET signal intensity. The TR-FRET ratio of 520/495 was calculated using a Victor multi label reader with an excitation wavelength of 340 nm and emission wavelengths of 520 nm and 495 nm, The activational capacity of potential ligands was tested in a […] polypropylene plate, following the manufacturer's protocol.

Lxrα = target: T2, Lxrα (Homo sapiens, UniProt Q13133); assay: Lxrα luciferase reporter assay in SN4741 neural cells; type: cell-based, mouse; details: 10 μM, 24 h
T2 construct: expressed in transfected cells; host or cells: SN4741 mouse neuronal cell line
T2 sequence (Q13133 1-447): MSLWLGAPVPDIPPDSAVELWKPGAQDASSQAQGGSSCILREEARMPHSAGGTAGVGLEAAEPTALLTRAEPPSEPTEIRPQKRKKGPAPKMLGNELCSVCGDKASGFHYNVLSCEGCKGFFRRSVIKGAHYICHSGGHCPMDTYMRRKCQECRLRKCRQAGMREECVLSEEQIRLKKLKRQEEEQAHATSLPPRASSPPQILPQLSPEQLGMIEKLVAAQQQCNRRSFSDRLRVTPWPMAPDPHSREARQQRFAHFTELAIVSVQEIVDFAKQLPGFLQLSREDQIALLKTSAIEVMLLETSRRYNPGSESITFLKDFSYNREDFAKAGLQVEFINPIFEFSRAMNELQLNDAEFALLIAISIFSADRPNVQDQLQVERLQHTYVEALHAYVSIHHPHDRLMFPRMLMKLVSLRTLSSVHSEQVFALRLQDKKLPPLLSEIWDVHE
Description: Luciferase Reporter Assay.

SMILES | Reduction of neuronal cell death (activated caspase 3) induced by 2 μM 3β,7β-diHCA or 3β-HCA (active caspase 3+ cells; 10 μM) | Effect on active caspase-3+ cells with GGPP (active caspase 3+ cells; 10 μM GGPP, toxic acids at 2 μM) | Concentration giving significant difference from vehicle in active caspase 3+ cells (active caspase 3+ cells) [µM] | Number of active caspase-3+ cells (active caspase 3+ cells) | Total number of Nkx6.1+ cells [1] | Number of other midbrain neurons (TH+ dopamine, GABAergic, red nucleus) ([1]; data not shown) | Abca1, Abcg1 and Srebf1 transcript levels [2] | Rescue of loss of Islet1+ cells induced by 2 μM 3β,7β-diHCA or 3β-HCA ([3]; 10 μM) | Effect on Islet1+ cells in Lxrα−/−β−/− cultures ([3]; cultures from Lxrα−/−β−/− mice) | Number of Islet1+ cells [3] | Concentration giving significant difference from vehicle in Islet1+ cells [3] [µM] | Effect on Islet1+ cells with Lxr antagonist GGPP ([3]; wt cultures, 10 μM GGPP) | TR-FRET signal (coactivator recruitment to Lxrβ-LBD) (Lxrβ-LBD; dose response) | Lxrα activation, luciferase activity (fold activation) (Lxrα) | Surviving cells in cultures (active caspase 3+ cells; 10 μM) | Concentration at which toxicity is initiated (active caspase 3+ cells; mouse, primary brain cultures from E11.5 mouse embryos, 3 days) [nM] | Competition with the effect of 3β,7α-diHCA in TR-FRET (Lxrβ-LBD; 3β,7α-diHCA at 10 μM plus increasing concentrations of competitor) | Competitor concentration giving significant difference from 10 μM 3β,7α-diHCA alone in TR-FRET (Lxrβ-LBD; p<0.05 vs 10 μM 3β,7α-diHCA)
CC(CCC[C@@H](C)[C@H]1CC[C@H]2[C@@H]3[C@H](O)C=C4C[C@@H](O)CC[C@]4(C)[C@H]3CC[C@]12C)C(=O)O (stereo partly drawn) [3β,7α-diHCA, 3β,7α-dihydroxycholest-5-en-26-oic acid] | reduced the neuronal cell death | completely blocked by co-incubation with the Lxr inhibitor GGPP | ≥ 10 | decreased the number of active caspase-3+ cells | neither 3β,7α-diHCA nor 3β-HCA altered the total number of Nkx6.1+ cells | did not affect the number of other midbrain neurons | increased transcripts levels to a similar degree as 22R-HC | reversed the loss of Islet1+ cells | eliminated | increased the number of Islet1+ oculomotor cells in the cultures | ≥ 5 | blocked by the Lxr antagonist GGPP | induced FRET in a dose dependent manner to a higher degree than the other acids | have the ability to activate both Lxrs | – | – | – | –
CC(CCC[C@@H](C)[C@H]1CC[C@H]2[C@@H]3CC=C4C[C@@H](O)CC[C@]4(C)[C@H]3CC[C@]12C)C(=O)O (stereo partly drawn) [3β-HCA, 3β-hydroxycholest-5-en-26-oic acid] | – | – | ≥ 2 | increased the number of active caspase-3+ cells | neither 3β,7α-diHCA nor 3β-HCA altered the total number of Nkx6.1+ cells | – | induced transcription, but to a lesser extent | – | – | caused the loss of Islet1+ cells in the cultures | ≥ 2 | – | – | activates Lxr | no surviving cells were detected | 1000 | the effect of 3β,7α-diHCA was reduced to that of the latter acids | ≥ 5
